Assays:
[1] = target: human norepinephrine transporter (NET) (Homo sapiens (Human), UniProt P23975); assay: Scintillation Proximity Assay (SPA) competition binding, human NET; settings: recombinant hNET-CHO membranes, [3H]nisoxetine
Text: (§1) Measure of Affinity to the Human Transporters DAT, NET and SERT
(§2) Affinity is expressed in terms of inhibition constant (Ki) of the compounds of the invention for DAT, NET and SERT, and it is typically calculated from the IC50 values obtained in competition experiments using Cheng and Prusoff equation (Cheng and Prusoff, Biochem. Pharmacol. 22:3099, 1973). In the context of the present invention pKi values (corresponding to the antilogarithm of Ki) are used instead of Ki; pKi are only estimated to be accurate to about 0.3 log unit.
(§3) Scintillation Proximity Assay (SPA) for Human DAT, NET and SERT Binding
(§4) Chinese Hamster Ovary (CHO) cells stably expressing either human DAT (hDAT-CHO) or human NET (hNET-CHO) or human SERT (hSERT-CHO) are used for the membrane preparations for radioligand binding assays using Scintillation proximity Assay (SPA) technique. Each cell line is cultured independently in F-12K Nutrient Mixture containing 10% of Fetal Bovine Serum (FBS) supplemented with 450 μg/ml G-418. When cells are at 70-80% of confluence 3 mM Na Butyrate was added to the cell culture medium. After 24 h of incubation, the culture medium was removed and the cells detached with Versene (DAT) or by scraping (NET and SERT). Cell suspension is centrifuged at 41,000 g for 10 minutes at 4° C. The resultant pellets are re-suspended in 15 volumes of Ice-cold buffer (20 mM HEPES, 145 mM NaCl, 5 mM KCl, pH7.3), homogenized using an Ultra Turrax homogeniser and centrifuged as before. The resultant membrane pellets are re-suspended in up to 15 volume of ice-cold buffer, incubated for 20 minutes at 37-C and centrifuged as before at 41,000 g. The final membrane pellets are re-suspended into 5-10 volumes of ice-cold buffer, dispensed into 0.5 ml aliquots and stored at −80° C. until use. Protein concentration for each preparation is determined using Bio-Rad Protein Assay kit.
(§5) The affinity of the compounds of the invention to the human DAT or NET or SERT transporters is assessed by using the [^3H]WIN-35,428 or [^3H]nisoxetine or [^3H]citalopram binding assays in recombinant human DAT, NET and SERT membranes with the SPA technology. The final assay volume is 50 μL in 384 well plates.
(§6) Briefly, 0.5 μL of test compound in neat DMSO or 0.5 μL of DMSO for total binding (TB) or 0.5 μL of indatraline 1 mM (10 μM final concentration) for non specific binding (NSB) are added to the assay plate. 50 μL of the SPA mixture is added to each well, containing: 30 μg/mL or 10 μg/mL or 25 μg/mL DAT, NET, SERT membranes, respectively; 5 nM [^3H]WIN-35,428 or 5 nM [^3H]nisoxetine or 1 nM [^3H]citalopram, for DAT, NET, SERT assay, respectively; 2.5 mg/mL or 1 mg/mL or 4 mg/mL WGA-PVT SPA beads (PerkinElmer RPNQ0001, for DAT, NET, SERT assay, respectively. All components are added to Assay Buffer (20 mM HEPES pH 7.4, 145 mM NaCl, 5 mM KCl, 0.01% Pluronic F-127). 0.02% BSA was used for DAT binding only. Plates are sealed with Topseal A and centrifuged 1 min, 800 rpm. Plates are loaded into a 1450 Microbeta TriLux (Perkin-Elmer) plate reader and the radioactivity counted after at least 4 hrs or overnight incubation at room temperature. Curve fitting and IC50 estimations are performed using a four parameter model in XLfit (IDBS, Guilford, UK) for Microdoft Excel (Microsoft, Redmond, Wash.).

[2] = target: human serotonin transporter (SERT) (Homo sapiens (Human), UniProt P31645); assay: Scintillation Proximity Assay (SPA) competition binding, human SERT; settings: recombinant hSERT-CHO membranes, [3H]citalopram
Text: as §1, §2, §3, §4, §5, §6

[3] = target: human dopamine transporter (DAT) (Homo sapiens (Human), UniProt Q01959); assay: Scintillation Proximity Assay (SPA) competition binding, human DAT; settings: recombinant hDAT-CHO membranes, [3H]WIN-35,428
Text: as §1
In the context of the present invention pKi values (corresponding to the antilogarithm of Ki) are used instead of Ki; pKi are only estimated to be accurate to about 0.3 log unit.
as §3, §4, §5, §6

Sequence of human dopamine transporter (DAT) (Q01959 whole entry): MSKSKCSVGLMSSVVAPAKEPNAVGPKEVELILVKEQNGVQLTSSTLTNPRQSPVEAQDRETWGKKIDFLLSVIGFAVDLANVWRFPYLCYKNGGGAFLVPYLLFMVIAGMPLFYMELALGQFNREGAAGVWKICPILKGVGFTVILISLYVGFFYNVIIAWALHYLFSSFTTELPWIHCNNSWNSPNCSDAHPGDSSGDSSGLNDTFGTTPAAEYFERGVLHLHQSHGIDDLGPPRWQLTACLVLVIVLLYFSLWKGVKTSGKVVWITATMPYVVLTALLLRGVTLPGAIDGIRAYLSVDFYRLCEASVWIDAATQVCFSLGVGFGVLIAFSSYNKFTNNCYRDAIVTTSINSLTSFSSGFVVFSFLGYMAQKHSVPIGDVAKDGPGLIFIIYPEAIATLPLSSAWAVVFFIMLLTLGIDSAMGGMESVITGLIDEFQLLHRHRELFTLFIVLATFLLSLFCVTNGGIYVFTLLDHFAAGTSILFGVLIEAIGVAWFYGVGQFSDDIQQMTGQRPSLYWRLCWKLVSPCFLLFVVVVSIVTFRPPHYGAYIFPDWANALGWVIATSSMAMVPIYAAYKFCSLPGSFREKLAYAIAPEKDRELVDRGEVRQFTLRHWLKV
Sequence of human serotonin transporter (SERT) (P31645 whole entry): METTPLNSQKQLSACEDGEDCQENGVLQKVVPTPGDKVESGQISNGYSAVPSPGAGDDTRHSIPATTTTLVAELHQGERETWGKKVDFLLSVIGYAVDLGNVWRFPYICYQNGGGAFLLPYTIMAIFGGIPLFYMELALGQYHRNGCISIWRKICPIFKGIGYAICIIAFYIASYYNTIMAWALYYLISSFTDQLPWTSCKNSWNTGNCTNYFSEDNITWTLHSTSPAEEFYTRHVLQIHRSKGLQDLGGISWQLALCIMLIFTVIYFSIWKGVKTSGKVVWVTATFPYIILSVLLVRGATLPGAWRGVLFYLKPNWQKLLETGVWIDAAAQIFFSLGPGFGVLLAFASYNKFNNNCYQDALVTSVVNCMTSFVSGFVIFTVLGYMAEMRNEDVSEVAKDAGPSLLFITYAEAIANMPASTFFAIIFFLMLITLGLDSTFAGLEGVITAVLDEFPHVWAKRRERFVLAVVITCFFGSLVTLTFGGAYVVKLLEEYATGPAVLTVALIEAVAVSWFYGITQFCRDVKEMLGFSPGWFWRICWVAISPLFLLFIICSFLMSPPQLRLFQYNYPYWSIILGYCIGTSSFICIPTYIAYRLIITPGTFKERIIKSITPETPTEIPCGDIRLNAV
Sequence of human norepinephrine transporter (NET) (P23975 whole entry): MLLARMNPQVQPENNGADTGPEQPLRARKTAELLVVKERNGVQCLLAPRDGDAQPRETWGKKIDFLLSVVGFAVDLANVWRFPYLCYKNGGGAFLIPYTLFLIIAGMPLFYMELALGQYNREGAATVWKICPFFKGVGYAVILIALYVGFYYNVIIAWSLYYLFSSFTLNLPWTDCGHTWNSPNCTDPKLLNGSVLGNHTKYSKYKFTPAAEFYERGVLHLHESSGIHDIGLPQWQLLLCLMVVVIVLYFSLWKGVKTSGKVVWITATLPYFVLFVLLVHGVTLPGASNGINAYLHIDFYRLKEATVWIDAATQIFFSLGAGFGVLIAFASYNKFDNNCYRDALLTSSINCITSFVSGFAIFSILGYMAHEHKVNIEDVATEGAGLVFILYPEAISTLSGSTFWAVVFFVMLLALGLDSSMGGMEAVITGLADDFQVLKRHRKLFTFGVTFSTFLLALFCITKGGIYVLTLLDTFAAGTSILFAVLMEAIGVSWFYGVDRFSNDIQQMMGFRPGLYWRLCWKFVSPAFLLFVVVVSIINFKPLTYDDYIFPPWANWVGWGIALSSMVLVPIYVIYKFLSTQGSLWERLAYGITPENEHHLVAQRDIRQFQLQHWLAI

| SMILES | IC50 [1] [µM] | IC50 [2] [µM] | pIC50 DAT [3] | pIC50 NET [1] | pIC50 SERT [2] |
| --- | --- | --- | --- | --- | --- |
| O[C@H]1CNCC[C@@]12CCN(c1nc(Oc3cccc(F)c3)cc(C(F)(F)F)n1)C2 (single isomer, unassigned) [Example 98, 2-[4-(3-fluorophenoxy)-6-(trifluoromethyl)pyrimidin-2-yl]-2,8-diazaspiro[4.5]decan-6-ol] | 0.437 | 11.2 |  |  |  |
| O[C@H]1CNCC[C@@]12CCN(c1nc(Oc3cccc(F)c3)cc(C(F)(F)F)n1)C2 (single isomer, unassigned) [Example 99, 2-[4-(3-fluorophenoxy)-6-(trifluoromethyl)pyrimidin-2-yl]-2,8-diazaspiro[4.5]decan-6-ol] | 0.245 | 11.2 |  |  |  |
| O[C@H]1CNCC[C@@]12CCN(c1nc(Oc3cccc(F)c3)cc(C(F)(F)F)n1)C2 (single isomer, unassigned) [Example 100, 2-[4-(3-fluorophenoxy)-6-(trifluoromethyl)pyrimidin-2-yl]-2,8-diazaspiro[4.5]decan-6-ol] | 0.398 | 6.92 |  |  |  |
| O[C@H]1CNCC[C@@]12CCN(c1nc(Oc3cccc(F)c3)cc(C(F)(F)F)n1)C2 (single isomer, unassigned) [Example 101, 2-[4-(3-fluorophenoxy)-6-(trifluoromethyl)pyrimidin-2-yl]-2,8-diazaspiro[4.5]decan-6-ol] | 0.263 | 11.2 |  |  |  |
| Cl.Fc1cccc(Oc2cc(F)c(F)cc2N2CCC3(CC2)CNCCO3)c1 [Example 2, 9-[4,5-difluoro-2-(3-fluorophenoxy)phenyl]-1-oxa-4,9-diazaspiro[5.5]undecane hydrochloride] |  |  | 8.14 | 6.03 | 6.49 |
| c1ccc(Oc2ccccc2N2CCC3(CC2)CNCCO3)cc1 [Example 3, 9-(2-phenoxyphenyl)-1-oxa-4,9-diazaspiro[5.5]undecane] |  |  | 6.09 | 5.28 | 5.02 |
| c1ccc(Oc2cccc(N3CCC4(CC3)CNCCO4)c2)cc1 [Example 6, 9-(3-phenoxyphenyl)-1-oxa-4,9-diazaspiro[5.5]undecane] |  |  | 7.41 | 5.83 | 6.12 |
| Cl.Fc1cccc(Oc2cc(F)cc(N3CCC4(CC3)CNCCO4)c2)c1 [Example 9, 9-[3-fluoro-5-(3-fluorophenoxy)phenyl]-1-oxa-4,9-diazaspiro[5.5]undecane hydrochloride] |  |  | 8.38 | 6.91 | 7.00 |
| Fc1cccc(Oc2cc(N3CCC4(CC3)CNCCO4)c(F)cc2F)c1 [Example 12, 9-[2,4-difluoro-5-(3-fluorophenoxy)phenyl]-1-oxa-4,9-diazaspiro[5.5]undecane] |  |  | 6.78 | 5.75 | 5.97 |
| Fc1cccc(Oc2cc(N3CCC4(CC3)CNCCO4)cc(F)c2F)c1 [Example 15, 9-[3,4-difluoro-5-(3-fluorophenoxy)phenyl]-1-oxa-4,9-diazaspiro[5.5]undecane] |  |  | 7.05 | 6.02 | 7.03 |
| Fc1cccc(Oc2ccc(F)c(N3CCC4(CC3)CNCCO4)c2F)c1 [Example 23, 9-[2,6-difluoro-3-(3-fluorophenoxy)phenyl]-1-oxa-4,9-diazaspiro[5.5]undecane] |  |  | 8.32 | 6.91 | 6.16 |
| N#Cc1ccc(Oc2ccccc2)cc1N1CCC2(CC1)CNCCO2 [Example 27, 2-{1-oxa-4,9-diazaspiro[5.5]undecan-9-yl}-4-phenoxybenzonitrile] |  |  | 7.54 | 5.69 | 5.15 |
| Cc1ccc(Oc2ccccc2)cc1N1CCC2(CC1)CNCCO2 [Example 29, 9-(2-methyl-5-phenoxyphenyl)-1-oxa-4,9-diazaspiro[5.5]undecane] |  |  | 7.44 | 6.01 | 5.80 |
| Fc1cccc(Oc2cncc(N3CCC4(CC3)CNCCO4)c2)c1 [Example 31, 9-[5-(3-fluorophenoxy)pyridin-3-yl]-1-oxa-4,9-diazaspiro[5.5]undecane] |  |  | 7.43 | 5.96 | 5.71 |
| c1ccc(Cc2cccc(N3CCC4(CC3)CNCCO4)c2)cc1 [Example 33, 9-(3-benzylphenyl)-1-oxa-4,9-diazaspiro[5.5]undecane] |  |  | 6.42 | 5.54 | 5.73 |
| Cc1c(C#N)cc(N2CCC3(CC2)CNCCO3)cc1Oc1cccc(F)c1.Cl [Example 35, 3-(3-fluorophenoxy)-2-methyl-5-{1-oxa-4,9-diazaspiro[5.5]undecan-9-yl}benzonitrile hydrochloride] |  |  | 8.16 | 6.52 | 8.45 |
| Cl.Fc1cccc(Oc2cccc(N3CCC4(CC3)CNCCO4)n2)c1 [Example 36, 9-[6-(3-fluorophenoxy)pyridin-2-yl]-1-oxa-4,9-diazaspiro[5.5]undecane hydrochloride] |  |  | 7.37 | 5.73 | 5.66 |
| Cl.N#Cc1cc(Oc2cccc(F)c2)nc(N2CCC3(CC2)CNCCO3)c1 [Example 38, 2-(3-fluorophenoxy)-6-{1-oxa-4,9-diazaspiro[5.5]undecan-9-yl}pyridine-4-carbonitrile hydrochloride] |  |  | 8.61 | 6.75 | 7.27 |
| Cl.N#Cc1c(C(F)(F)F)cc(N2CCC3(CC2)CNCCO3)nc1Oc1cccc(F)c1 [Example 39, 2-(3-fluorophenoxy)-6-{1-oxa-4,9-diazaspiro[5.5]undecan-9-yl}-4-(trifluoromethyl)pyridine-3-carbonitrile hydrochloride] |  |  | 6.68 | 5.78 | 4.50 |
| Cl.N#Cc1c(C(F)(F)F)cc(Oc2cccc(F)c2)nc1N1CCC2(CC1)CNCCO2 [Example 40, 6-(3-fluorophenoxy)-2-{1-oxa-4,9-diazaspiro[5.5]undecan-9-yl}-4-(trifluoromethyl)pyridine-3-carbonitrile hydrochloride] |  |  | 7.25 | 6.29 | 5.35 |
| Cc1cc(Oc2cccc(OC(F)(F)F)c2)nc(N2CCC3(CC2)CNCCO3)n1.Cl [Example 47, 9-{4-methyl-6-[3-(trifluoromethoxy)phenoxy]pyrimidin-2-yl}-1-oxa-4,9-diazaspiro[5.5]undecane hydrochloride] |  |  | 6.59 | 5.51 | 5.27 |
| Cc1cc(Oc2cc(F)cc(F)c2)nc(N2CCC3(CC2)CNCCO3)n1.Cl [Example 50, 9-[4-(3,5-difluorophenoxy)-6-methylpyrimidin-2-yl]-1-oxa-4,9-diazaspiro[5.5]undecane hydrochloride] |  |  | 8.24 | 6.96 | 5.11 |
| OC1CNCCC12CCN(c1nc(Oc3cccc(F)c3)cc(C(F)(F)F)n1)C2 (stereo not drawn) [Example 96, 2-[4-(3-fluorophenoxy)-6-(trifluoromethyl)pyrimidin-2-yl]-2,8-diazaspiro[4.5]decan-6-ol] |  |  |  | 6.62 | 5.25 |
| OC1CNCCC12CCN(c1nc(Oc3cccc(F)c3)cc(C(F)(F)F)n1)C2 (stereo not drawn) [Example 97, 2-[4-(3-fluorophenoxy)-6-(trifluoromethyl)pyrimidin-2-yl]-2,8-diazaspiro[4.5]decan-6-ol] |  |  |  | 6.62 | 5.34 |

Reference: patent US9908897B2, “Spirocyclic derivatives” (CHRONOS THERAPEUTICS LIMITED, priority 2014, dated 2018)
